{"source": "patent US10689383B2", "about": "“Optionally fused heterocyclyl-substituted derivatives of pyrimidine useful for the treatment of inflammatory, metabolic, oncologic and autoimmune diseases” (NUEVOLUTION A/S, priority 2014, dated 2020)", "key": {"[1]": {"molecular_target": "T1, human RORγt (Ligand Binding Domain) (Homo sapiens, UniProt P51449)", "T1 construct": "purchased Crelux (Planegg, Germany) batch no PC5032-1", "T1 sequence (P51449 269-508 limits assumed)": "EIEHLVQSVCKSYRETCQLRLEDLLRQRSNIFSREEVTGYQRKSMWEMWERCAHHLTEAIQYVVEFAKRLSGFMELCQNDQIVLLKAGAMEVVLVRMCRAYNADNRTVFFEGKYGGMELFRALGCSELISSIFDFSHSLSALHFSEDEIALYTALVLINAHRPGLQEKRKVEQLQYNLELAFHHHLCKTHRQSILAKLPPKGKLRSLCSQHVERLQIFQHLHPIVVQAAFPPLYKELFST", "assay": "Fluorescence Polarization (FP) Assay", "conditions": "Fluorescence Polarization (FP) Assay; values given as upper bounds of activity ranges; read-out: FP activity range", "summary_of_the_method": "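In vitro FP binding assay monitoring ligand binding within the ligand binding pocket. Probe is a TAMRA-labelled RORγt ligand (MW 910 g/mole); DMSO served as negative control.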"}, "[2]": {"molecular_target": "T2, yeast Gal4-DNA binding domain fused to the ligand binding domain of human RORγ (Homo sapiens, UniProt P51449)", "T2 construct": "host or cells: HEK293t", "T2 sequence (P51449 269-508 limits assumed)": "T1 sequence (P51449 269-508 limits assumed)", "assay": "RORγ Reporter Assay (Gal4)", "type": "cell-based", "conditions": "values given as lower bounds of ranges; for Gal4 activity range @ 0.1 μM (% inhibition): RORγ Reporter Assay (Gal4) at 0.1 μM; for Gal4 activity range @ 1 μM (% inhibition): RORγ Reporter Assay (Gal4) at 1 μM", "summary_of_the_method": "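HEK293t reporter cells expressing the hybrid, with Gal4-UAS-driven firefly luciferase, treated in triplicate with compound at 1,000 nM and 100 nM (0.1% DMSO) in medium with 10% charcoal-stripped FBS for 24 h at 37 °C. Luminescence read; percent reduction of RLU calculated relative to vehicle.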"}}, "data": [{"smiles": "NC(=O)Cc1ccc(CN2CCc3c2ncnc3N2CCC[C@@H]2c2ccc(C(F)(F)F)cc2)cc1", "note": "[Example 265, 2-[4-[[4-[(2R)-2-[4-(trifluoromethyl)phenyl]pyrrolidin-1-yl]-5,6-dihydropyrrolo[2,3-d]pyrimidin-7-yl]methyl]phenyl]acetamide]", "values": [{"measurement": "IC50", "setting": "[1]", "value": "< 500", "unit": "nM"}, {"measurement": "Gal4 activity range @ 0.1 μM (% inhibition)", "setting": "[2]", "value": ">80", "unit": "% inhibition"}, {"measurement": "Gal4 activity range @ 1 μM (% inhibition)", "setting": "[2]", "value": ">80", "unit": "% inhibition"}]}, {"smiles": "CS(=O)(=O)N[C@H]1CC[C@H](CNc2ncnc(N3CCOC[C@@H]3c3ccc(OC(F)(F)F)cc3)c2F)CC1", "note": "[Example 267, N-[4-[[[5-fluoro-6-[(3S)-3-[4-(trifluoromethoxy)phenyl]morpholin-4-yl]pyrimidin-4-yl]amino]methyl]cyclohexyl] methanesulfonamide]", "values": [{"measurement": "IC50", "setting": "[1]", "value": "< 500", "unit": "nM"}, {"measurement": "Gal4 activity range @ 0.1 μM (% inhibition)", "setting": "[2]", "value": ">80", "unit": "% inhibition"}, {"measurement": "Gal4 activity range @ 1 μM (% inhibition)", "setting": "[2]", "value": ">80", "unit": "% inhibition"}]}, {"smiles": "COc1ccc(C[C@@H](Nc2ncnc(N3CCCC3c3ccc(C(F)(F)F)cc3)c2F)C(N)=O)cc1", "note": "(stereo partly drawn) [Example 17, (2R)-2-[[5-fluoro-6-[2-[4-(trifluoromethyl)phenyl]pyrrolidin-1-yl]pyrimidin-4-yl]amino]-3-(4-methoxyphenyl)propanamide]", "values": [{"measurement": "IC50", "setting": "[1]", "value": "< 500", "unit": "nM"}, {"measurement": "Gal4 activity range @ 1 μM (% inhibition)", "setting": "[2]", "value": ">80", "unit": "% inhibition"}]}, {"smiles": "O=S(=O)(NC1CC1)c1ccc(CNc2ncnc(N3CCOCC3c3ccccc3)c2F)cc1", "note": "(stereo not shown) [Example 273, N-cyclopropyl-4-[[[5-fluoro-6-(3-phenylmorpholin-4-yl)pyrimidin-4-yl]amino]methyl] benzenesulfonamide]", "values": [{"measurement": "IC50", "setting": "[1]", "value": "< 500", "unit": "nM"}, {"measurement": "Gal4 activity range @ 0.1 μM (% inhibition)", "setting": "[2]", "value": ">20", "unit": "% inhibition"}, {"measurement": "Gal4 activity range @ 1 μM (% inhibition)", "setting": "[2]", "value": ">80", "unit": "% inhibition"}]}, {"smiles": "CS(=O)(=O)CC1(CNc2ncnc(N3CCC[C@@H]3c3ccc(C(F)(F)F)cc3)c2F)CCOCC1", "note": "[Example 240, 5-fluoro-N-[[4-(methylsulfonylmethyl)tetrahydropyran-4-yl]methyl]-6-[(2R)-2-[4-(trifluoromethyl)phenyl]pyrrolidin-1-yl]pyrimidin-4-amine]", "values": [{"measurement": "IC50", "setting": "[1]", "value": "< 500", "unit": "nM"}, {"measurement": "Gal4 activity range @ 0.1 μM (% inhibition)", "setting": "[2]", "value": ">80", "unit": "% inhibition"}, {"measurement": "Gal4 activity range @ 1 μM (% inhibition)", "setting": "[2]", "value": ">80", "unit": "% inhibition"}]}, {"smiles": "Fc1c(NCC2CCOCC2)ncnc1N1CCC[C@@H]1c1ccc(C(F)(F)F)cc1", "note": "[Example 208, 5-fluoro-N-(tetrahydropyran-4-ylmethyl)-6-[(2R)-2-[4-(trifluoromethyl)phenyl]pyrrolidin-1-yl]pyrimidin-4-amine]", "values": [{"measurement": "IC50", "setting": "[1]", "value": "< 500", "unit": "nM"}, {"measurement": "Gal4 activity range @ 0.1 μM (% inhibition)", "setting": "[2]", "value": ">50", "unit": "% inhibition"}, {"measurement": "Gal4 activity range @ 1 μM (% inhibition)", "setting": "[2]", "value": ">80", "unit": "% inhibition"}]}, {"smiles": "OC1(CNc2ncnc(N3CCOC[C@@H]3c3ccc(C(F)(F)F)cc3)c2F)CCOC1", "note": "(stereo partly drawn) [Example 238, 3-[[[5-fluoro-6-[(3S)-3-[4-(trifluoromethyl)phenyl]morpholin-4-yl]pyrimidin-4-yl]amino]methyl]tetrahydrofuran-3-ol]", "values": [{"measurement": "IC50", "setting": "[1]", "value": "< 10000", "unit": "nM"}, {"measurement": "Gal4 activity range @ 0.1 μM (% inhibition)", "setting": "[2]", "value": ">0", "unit": "% inhibition"}, {"measurement": "Gal4 activity range @ 1 μM (% inhibition)", "setting": "[2]", "value": ">50", "unit": "% inhibition"}]}, {"smiles": "NC(=O)Cc1ccc(Cn2ccc3c(N4CCOC[C@@H]4c4ccc(C(F)(F)F)nc4)ncnc32)cc1", "note": "[Example 326, 2-[4-[[4-[(3S)-3-[6-(trifluoromethyl)-3-pyridyl]morpholin-4-yl]pyrrolo[2,3-d]pyrimidin-7-yl]methyl]phenyl]acetamide]", "values": [{"measurement": "IC50", "setting": "[1]", "value": "< 500", "unit": "nM"}, {"measurement": "Gal4 activity range @ 0.1 μM (% inhibition)", "setting": "[2]", "value": ">50", "unit": "% inhibition"}, {"measurement": "Gal4 activity range @ 1 μM (% inhibition)", "setting": "[2]", "value": ">80", "unit": "% inhibition"}]}, {"smiles": "O=S(=O)(O)c1ccc(CNc2ncnc(N3CCC[C@@H]3c3ccc(C(F)(F)F)cc3)c2F)cc1", "note": "[Example 319, 4-[[[5-fluoro-6-[(2R)-2-[4-(trifluoromethyl)phenyl]pyrrolidin-1-yl]pyrimidin-4-yl]amino]methyl]benzenesulfonic acid]", "values": [{"measurement": "IC50", "setting": "[1]", "value": "< 500", "unit": "nM"}, {"measurement": "Gal4 activity range @ 1 μM (% inhibition)", "setting": "[2]", "value": ">0", "unit": "% inhibition"}]}, {"smiles": "O=C(O)Cc1ccc(CNc2ncnc(N3CCOCC3c3ccc(C(F)(F)F)cc3)c2F)cc1", "note": "(stereo not shown) [Example 119, 2-[4-[[[5-fluoro-6-[3-[4-(trifluoromethyl)phenyl]morpholin-4-yl]pyrimidin-4-yl]amino]methyl]phenyl]acetic acid]", "values": [{"measurement": "IC50", "setting": "[1]", "value": "< 1000", "unit": "nM"}, {"measurement": "Gal4 activity range @ 0.1 μM (% inhibition)", "setting": "[2]", "value": ">20", "unit": "% inhibition"}, {"measurement": "Gal4 activity range @ 1 μM (% inhibition)", "setting": "[2]", "value": ">80", "unit": "% inhibition"}]}, {"smiles": "NC(=O)Cc1ccc(CNc2ncnc(N3CC(=O)CC3c3ccc(C(F)(F)F)cc3)c2F)cc1", "note": "(stereo not shown) [Example 280, 2-[4-[[[5-fluoro-6-[4-oxo-2-[4-(trifluoromethyl)phenyl]pyrrolidin-1-yl]pyrimidin-4-yl]amino]methyl]phenyl]acetamide]", "values": [{"measurement": "IC50", "setting": "[1]", "value": "< 500", "unit": "nM"}, {"measurement": "Gal4 activity range @ 0.1 μM (% inhibition)", "setting": "[2]", "value": ">0", "unit": "% inhibition"}, {"measurement": "Gal4 activity range @ 1 μM (% inhibition)", "setting": "[2]", "value": ">20", "unit": "% inhibition"}]}, {"smiles": "CS(=O)(=O)N1CCC(CNc2ncnc(N3CCCC3c3ccc(C(F)(F)F)cc3O)c2F)CC1", "note": "(stereo not shown) [Example 324, 2-[1-[5-fluoro-6-[(1-methylsulfonyl-4-piperidyl)methylamino]pyrimidin-4-yl]pyrrolidin-2-yl]-5-(trifluoromethyl)phenol]", "values": [{"measurement": "IC50", "setting": "[1]", "value": "< 500", "unit": "nM"}, {"measurement": "Gal4 activity range @ 0.1 μM (% inhibition)", "setting": "[2]", "value": ">50", "unit": "% inhibition"}, {"measurement": "Gal4 activity range @ 1 μM (% inhibition)", "setting": "[2]", "value": ">80", "unit": "% inhibition"}]}, {"smiles": "CC(C)(C)C[C@@H](Nc1ncnc(N2CCCC2c2ccc(C(F)(F)F)cc2)c1F)C1CNCCO1", "note": "(stereo partly drawn) [Example 64, N-[(1R)-3,3-dimethyl-1-morpholin-2-yl-butyl]-5-fluoro-6-[2-[4-(trifluoromethyl)phenyl]pyrrolidin-1-yl]pyrimidin-4-amine]", "values": [{"measurement": "IC50", "setting": "[1]", "value": "< 2000", "unit": "nM"}, {"measurement": "Gal4 activity range @ 1 μM (% inhibition)", "setting": "[2]", "value": ">20", "unit": "% inhibition"}]}, {"smiles": "CC(C)CC(Nc1ncnc(N2CCCC2c2ccc(C(F)(F)F)cc2)c1F)c1nnn[nH]1", "note": "(stereo not shown) [Example 123, 5-fluoro-N-[3-methyl-1-(1H-tetrazol-5-yl)butyl]-6-[2-[4-(trifluoromethyl)phenyl]pyrrolidin-1-yl]pyrimidin-4-amine]", "values": [{"measurement": "IC50", "setting": "[1]", "value": "< 10000", "unit": "nM"}, {"measurement": "Gal4 activity range @ 0.1 μM (% inhibition)", "setting": "[2]", "value": ">0", "unit": "% inhibition"}, {"measurement": "Gal4 activity range @ 1 μM (% inhibition)", "setting": "[2]", "value": ">20", "unit": "% inhibition"}]}, {"smiles": "OCc1ccc(CNc2ncnc(N3CCC[C@@H]3c3ccc(C(F)(F)F)cc3)c2F)cc1", "note": "[Example 227, [4-[[[5-fluoro-6-[(2R)-2-[4-(trifluoromethyl)phenyl]pyrrolidin-1-yl]pyrimidin-4-yl]amino]methyl]phenyl]methanol]", "values": [{"measurement": "IC50", "setting": "[1]", "value": "< 500", "unit": "nM"}, {"measurement": "Gal4 activity range @ 0.1 μM (% inhibition)", "setting": "[2]", "value": ">80", "unit": "% inhibition"}, {"measurement": "Gal4 activity range @ 1 μM (% inhibition)", "setting": "[2]", "value": ">80", "unit": "% inhibition"}]}, {"smiles": "Cc1ccc(CNc2ncnc(N3CCCC3c3ccc(C(F)(F)F)cc3)c2F)o1", "note": "(stereo not shown) [Example 107, 5-fluoro-N-[(5-methyl-2-furyl)methyl]-6-[2-[4-(trifluoromethyl)phenyl]pyrrolidin-1-yl]pyrimidin-4-amine]", "values": [{"measurement": "IC50", "setting": "[1]", "value": "< 10000", "unit": "nM"}, {"measurement": "Gal4 activity range @ 1 μM (% inhibition)", "setting": "[2]", "value": ">0", "unit": "% inhibition"}]}, {"smiles": "Fc1c(NCc2ccncc2)ncnc1N1CCCC1c1ccc(C(F)(F)F)cc1", "note": "(stereo not shown) [Example 140, 5-fluoro-N-(4-pyridylmethyl)-6-[2-[4-(trifluoromethyl)phenyl]pyrrolidin-1-yl]pyrimidin-4-amine]", "values": [{"measurement": "IC50", "setting": "[1]", "value": "< 500", "unit": "nM"}, {"measurement": "Gal4 activity range @ 0.1 μM (% inhibition)", "setting": "[2]", "value": ">20", "unit": "% inhibition"}]}]}
